{
  "source": "patent US8211035B2",
  "about": "“System and method for monitoring health using exhaled breath” (University of Florida Research Foundation, Inc., priority 2002, dated 2012)",
  "origin": "cited, not measured here",
  "data": [
    {"smiles": "CC(C)c1cccc(C(C)C)c1O", "note": "[propofol, 2,6-diisopropylphenol]", "values": [
      {"measurement": "dose recovered in urine as hydroxylated and conjugated metabolites", "value": 88, "unit": "%"}
    ]}
  ]
}
